Test results reported in patent US8529542B2, “Method and system for sustained-release of sclerosing agent” (UTI Limited Partnership, priority 2007, dated 2013).

Assays:
[1] = test system: rabbit model of pleurodesis; experiment: Direct daily dosing at low levels, rabbit model of pleurodesis; format: in vivo; details: for average pleurodesis score: score out of 8
Protocol: These experiments were carried out in order to determine if low doses of sclerosing agents could result in successful pleurodesis when administered in a repeated fashion. Using daily doses of silver nitrate or doxycycline in decreasing doses starting at the lower limit of what has previously been reported to be effective, further decreases in dosing were administered utilizing single day, 5 day or 14 day regimens. Theoretically utilizing lower doses on a repeated basis may reduce the frequency and/or severity of side effects.
All experiments were carried out in a rabbit model of pleurodesis which has been extensively utilized in the field of pleurodesis in many centers around the world. As explained in further detail below, standard pleurodesis is score graded one to 8 and is used for assessment of the efficacy of pleurodesis, the number one representing a normal pleural space while 8 represents complete pleural symphysis. A score of 5 or higher is usually considered consistent with a successful pleurodesis.
A total of 18 animals were treated with doxycycline at doses of 1 mg/kg, 5 mg/kg, or 10 mg/kg. Animals (n=2) in the 10 mg/kg group received only the single day injection, animals (n=2/group) in the 5 mg/kg range received either 1 day, 5 days or 14 days injection, and animals in the lowest dose range of 1 mg/kg (n=2/group) received repeated injections over 5 days or 14 days. The results were compared with the placebo groups (n=2/group) which were given saline injections over either 1, 5 or 14 days. All doses were administered after a daily drainage. At the end of the treatment period, the animals were euthanized and pleurodesis was scored according to the standard scoring system shown in FIG. 5.
A total of 20 animals were treated with silver nitrate at dosing concentrations of 0.05%, 0.085%, 0.425% and 0.85%. Note that reported effective single dose injections of silver nitrate in this model range from 0.3% to 0.5%. A concentration of 0.25% was reported to be ineffective in one publication, but overall data is limited. The groups were assigned a treatment period of either a 1 day, 5 days or 14 days of repeated injections. A minimum of 2 animals were used for each of the 10 groups, and a further 2 animals were tested at the lowest dose range (0.05%). The results were compared with the placebo groups which were given saline injections over either 1, 5 or 14 days (n=2/group). All doses were administered after a daily drainage. At the end of the treatment period, the animals were euthanized and pleurodesis was scored according to the standard scoring table (shown in FIG. 5). Degree of pleural inflammation and fibrosis was also evaluated.

patients = details: cited from earlier work; for pain after intrapleural administration: literature reports
animal model = details: cited from earlier work
[2] = test system: rabbit model of pleurodesis; details: concentration of 0.25%; cited from earlier work

In the case of `C[C@H]1c2cccc(O)c2C(=O)C2=C(O)[C@]3(O)C(=O)C(C(N)=O)=C(O)[C@@H](N(C)C)[C@@H]3[C@@H](O)[C@@H]21` [doxycycline], the pleurodesis score ([1]; 5 mg/kg over 14 days, score 1-8) is listed as 5, the mean pleurodesis score ([1]; 10 mg/kg single dose, score 1-8) is listed as 4.5 and the “pain after intrapleural administration” value (patients) is listed as “significant”.
For `O=[N+]([O-])[O-].[Ag+]` [silver nitrate], the average pleurodesis score ([1]; 0.05% 14 days of repeated injections) was 6.5, the pleurodesis scores ([1]; 0.050% administered for 14 days) was “greater than or equal to 5” and the pleurodesis scores ([1]; 0.085% administered for 5 days) was “successful pleurodesis scores”. For the same compound, the average pleurodesis score ([1]; 0.085% repeated daily over 5 days) was 7.5, the pleurodesis outcome ([1]; 0.085% single dose) was “ineffective in achieving pleurodesis” and the average pleurodesis score ([1]; 0.425% single day injection) was 8. For the same compound, the average pleurodesis score ([1]; 0.85% single day injection) was 8, the “systemic response (white blood cell count elevation, neutrophilia, serum interleukin-8 and VEGF levels)” value (animal model; concentration of 0.1% vs 0.5% dose (Marchi et al., 2005)) was “less systemic response” and the “tolerability in human trial” value (patients; 0.5% concentration (Paschoalini et al., 2005)) was “well tolerated”. For the same compound, the clinical side effects (patients; concentrations of up 10% (Wied et al.)) was “severe pain and side effects”, the “pain after intrapleural administration” value (patients) was “significant” and the “pleurodesis outcome (one publication)” value [2] was “ineffective”.
In the case of `CN(C)c1ccc(O)c2c1C[C@H]1C[C@H]3[C@H](N(C)C)C(O)=C(C(N)=O)C(=O)[C@@]3(O)C(O)=C1C2=O` [minocycline], the mortality (animal model; higher doses, intrapleural (Light et al., 1994)) is given as “excess mortality”.
For `CN(C)[C@@H]1C(O)=C(C(N)=O)C(=O)[C@@]2(O)C(O)=C3C(=O)c4c(O)cccc4[C@@](C)(O)[C@H]3C[C@@H]12` [tetracycline], the “pain after intrapleural administration” value (patients) is listed as “Intense pain”.
